{"source": "patent US9573911B2", "about": "“Diphosphate mimetics and uses thereof” (President and Fellows of Harvard College, priority 2011, dated 2017)", "type_in_all_cases": "biochemical", "key": {"OGT": {"target": "T1, OGT (Homo sapiens, UniProt O15294)", "T1 construct": "hOGT4.5 construct (spanning residues 313-1031 based on the numbering of the full length human protein); made in house", "T1 sequence (O15294 313-1031 isoform O15294-3)": "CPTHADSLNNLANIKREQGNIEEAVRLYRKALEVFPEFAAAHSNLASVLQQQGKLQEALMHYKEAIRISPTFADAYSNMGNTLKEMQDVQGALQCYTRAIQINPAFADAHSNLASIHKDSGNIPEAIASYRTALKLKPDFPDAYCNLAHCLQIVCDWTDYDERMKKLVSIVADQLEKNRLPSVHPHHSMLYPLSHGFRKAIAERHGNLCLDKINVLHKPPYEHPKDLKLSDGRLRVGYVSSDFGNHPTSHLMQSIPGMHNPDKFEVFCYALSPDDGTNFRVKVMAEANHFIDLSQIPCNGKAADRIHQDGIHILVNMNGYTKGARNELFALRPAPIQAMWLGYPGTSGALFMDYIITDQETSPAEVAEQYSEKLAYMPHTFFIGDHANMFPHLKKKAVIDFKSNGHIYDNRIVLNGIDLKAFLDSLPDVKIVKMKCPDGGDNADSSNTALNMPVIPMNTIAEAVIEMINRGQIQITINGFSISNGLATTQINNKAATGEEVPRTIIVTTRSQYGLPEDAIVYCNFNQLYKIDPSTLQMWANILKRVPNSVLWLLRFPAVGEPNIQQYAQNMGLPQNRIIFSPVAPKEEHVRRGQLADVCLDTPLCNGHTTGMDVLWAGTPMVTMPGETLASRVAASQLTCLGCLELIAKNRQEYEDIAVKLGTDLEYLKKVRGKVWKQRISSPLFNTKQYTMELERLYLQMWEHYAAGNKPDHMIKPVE", "assay": "Western blot of BZX inhibitor treated cell lysates (O-GlcNAcylation by added OGT)", "conditions": "MCF-10A ErbB2 cell lysates; OGT 2 μM, UDP-GlcNAc 1 mM, BZX inhibitors 200 μM", "protocol": "[…] ErbB2 cells were maintained in DMEM/F12 (Invitrogen) supplemented with 5% horse serum (Invitrogen), 20 ng/ml EGF (Peprotech), 10 μg/ml insulin (Sigma), 100 ng/ml cholera toxin (Sigma), […] hydrocortisone (Sigma), 50 U/ml penicillin, and 50 μg/ml streptomycin (Invitrogen) to reach 70% confluence. The cells were then grown for another 9 hours in glucose starvation medium (DMEM-no glucose (Invitrogen) supplemented with 1% horse serum, 50 U/ml penicillin and 50 μg/ml streptomycin) before harvest. The cell lysates, prepared as described above, were divided into four tubes with each tube containing the same amount of protein. Nothing was added to tube I; OGT (2 μM) and DMSO (1%) were added into tube II; OGT (2 μM) and (2) (200 μM) were added to tube III; OGT (2 μM) and 1 (200 μM) were added to tube IV. The four samples were incubated at room temperature for 30 min before adding UDP-GlcNAc (1 mM) and incubated for another 2 hours. After incubation, all samples were analyzed with SDS-PAGE and a Western blot was carried out using the anti-O-GlcNAc antibody as described above."}, "PHKG2": {"target": "T2, PHKG2 (Homo sapiens, UniProt P15735)", "T2 construct": "purchased Invitrogen", "T2 sequence (P15735 1-406)": "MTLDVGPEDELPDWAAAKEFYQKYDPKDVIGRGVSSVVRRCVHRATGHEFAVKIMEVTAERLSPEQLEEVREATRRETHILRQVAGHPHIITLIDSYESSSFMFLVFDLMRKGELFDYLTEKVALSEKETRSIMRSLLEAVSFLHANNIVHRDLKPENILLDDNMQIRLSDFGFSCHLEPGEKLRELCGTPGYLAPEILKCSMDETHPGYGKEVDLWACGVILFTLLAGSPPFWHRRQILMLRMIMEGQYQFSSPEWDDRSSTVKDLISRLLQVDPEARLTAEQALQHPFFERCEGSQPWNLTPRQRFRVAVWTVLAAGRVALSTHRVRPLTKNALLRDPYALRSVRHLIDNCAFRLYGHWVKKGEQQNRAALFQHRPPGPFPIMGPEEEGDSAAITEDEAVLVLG", "assay": "Kinase profiling, Invitrogen Z'-LYTE", "conditions": "Table 2", "protocol": "(§1) Kinase profiling was conducted using Invitrogen Z'-LYTE screening protocol and assay conditions found at www.invitrogen.com. Compound (2) inhibited PLK1 completely at 5 μM."}, "IKBKE (IKK epsilon)": {"target": "T3, IKBKE (IKK epsilon) (Homo sapiens, UniProt Q14164)", "T3 construct": "purchased Invitrogen", "T3 sequence (Q14164 1-716)": "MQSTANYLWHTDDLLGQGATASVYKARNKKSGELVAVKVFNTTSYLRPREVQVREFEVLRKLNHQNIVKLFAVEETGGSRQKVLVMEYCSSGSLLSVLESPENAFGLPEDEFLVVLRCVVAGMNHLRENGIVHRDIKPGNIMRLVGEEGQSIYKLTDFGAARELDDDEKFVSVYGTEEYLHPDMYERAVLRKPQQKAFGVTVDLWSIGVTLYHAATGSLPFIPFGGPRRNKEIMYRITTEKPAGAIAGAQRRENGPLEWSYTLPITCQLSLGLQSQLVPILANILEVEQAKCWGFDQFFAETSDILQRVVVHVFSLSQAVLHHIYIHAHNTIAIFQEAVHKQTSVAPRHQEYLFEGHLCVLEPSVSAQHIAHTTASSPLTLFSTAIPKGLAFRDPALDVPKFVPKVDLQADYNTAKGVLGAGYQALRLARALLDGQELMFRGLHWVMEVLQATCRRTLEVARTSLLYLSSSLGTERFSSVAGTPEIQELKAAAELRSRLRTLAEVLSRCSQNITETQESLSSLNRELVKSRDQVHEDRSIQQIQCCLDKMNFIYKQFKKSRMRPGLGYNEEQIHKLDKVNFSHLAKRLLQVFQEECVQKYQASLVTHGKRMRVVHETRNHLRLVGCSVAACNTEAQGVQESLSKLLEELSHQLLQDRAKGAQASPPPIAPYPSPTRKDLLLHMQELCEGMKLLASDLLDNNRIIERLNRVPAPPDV", "assay": "Kinase profiling, Invitrogen Z'-LYTE", "conditions": "Table 2", "protocol": "as §1"}, "PRKX": {"target": "T4, PRKX (Homo sapiens, UniProt P51817)", "T4 construct": "purchased Invitrogen", "T4 sequence (P51817 1-358)": "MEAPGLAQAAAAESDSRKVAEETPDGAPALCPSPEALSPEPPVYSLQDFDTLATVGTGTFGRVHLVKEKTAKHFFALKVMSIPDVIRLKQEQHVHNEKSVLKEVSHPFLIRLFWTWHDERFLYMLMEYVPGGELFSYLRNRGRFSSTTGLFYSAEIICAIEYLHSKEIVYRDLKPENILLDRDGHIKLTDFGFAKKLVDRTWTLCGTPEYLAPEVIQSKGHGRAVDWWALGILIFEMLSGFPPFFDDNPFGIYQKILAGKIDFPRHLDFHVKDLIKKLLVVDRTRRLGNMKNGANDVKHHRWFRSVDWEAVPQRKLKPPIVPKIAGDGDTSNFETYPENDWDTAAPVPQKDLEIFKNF", "assay": "Kinase profiling, Invitrogen Z'-LYTE", "conditions": "Table 2", "protocol": "as §1"}}}
{"smiles": "COc1ccc(OC(=O)n2c(=O)oc3cc(C(C)=O)ccc32)cc1", "note": "[Compound 2]", "values": [{"measurement": "inhibition of OGT activity (O-GlcNAcylation) in cell lysates", "setting": "OGT", "result": "more potent inhibitor of OGT activity than compound (1)"}, {"measurement": "% Inhibition Point 1", "setting": "PHKG2", "result": "−360", "unit": "%"}, {"measurement": "% Inhibition Point 2", "setting": "PHKG2", "result": "−308", "unit": "%"}, {"measurement": "% Inhibition mean", "setting": "PHKG2", "result": "−334", "unit": "%"}, {"measurement": "% Inhibition Point 1", "setting": "IKBKE (IKK epsilon)", "result": 3, "unit": "%"}, {"measurement": "% Inhibition Point 2", "setting": "IKBKE (IKK epsilon)", "result": 4, "unit": "%"}, {"measurement": "% Inhibition mean", "setting": "IKBKE (IKK epsilon)", "result": 3, "unit": "%"}, {"measurement": "% Inhibition Point 1", "setting": "PRKX", "result": "−135", "unit": "%"}, {"measurement": "% Inhibition Point 2", "setting": "PRKX", "result": "−134", "unit": "%"}, {"measurement": "% Inhibition mean", "setting": "PRKX", "result": "−135", "unit": "%"}]}
